PMC6696115, “Characterization of Antimicrobial, Antioxidant, and Leishmanicidal Activities of Schiff Base Derivatives of 4-Aminoantipyrine” (Molecules, 2019)
Converted amounts (≈) assume the structure as drawn.

Columns and labels:
[1] = DPPH radical scavenging assay; format: biochemical; conditions: statement in words
[2] = tested on: S. cerevisiae sod1 mutant (BY4741); test: growth inhibition (OD600) of sod1 mutant yeast, oxidative effect; format: cell-based, Saccharomyces cerevisiae
Procedure: Next, we wanted to evaluate the oxidative activity. To do this, drop test assays were performed with wild-type (W303 and BY4741 backgrounds) and sod1 (BY4741 background) yeast cells in the presence of 200 µg/mL of the analyzed Schiff bases (Figure 3). The SOD1 gene encodes superoxide dismutase 1, an enzyme with a major role in detoxifying ROS species generated during metabolism or because of environmental exposure. sod1 mutant cells are unprotected against oxidative agents, decreasing survival in their presence.
(A) Drop test of serial dilution of yeast cell cultures (wild type from genetic background W303, wild type from genetic background BY4741, and sod1 mutant from genetic background BY4741) exposed to Schiff bases at 200 µg/mL. A control without drug and with 2% DMSO are included.
The bacterial inoculum was prepared by emulsifying overnight colonies from an agar medium in broth (Mueller–Hinton broth). The suspensions were adjusted to a final organism density of 5 × 10^5 colony former units (cfu)/mL. […] The emulsifying of A. niger cultures was done by pouring 5 mL of saline and 0.1% of polysorbate 80 over the Petri dishes. Then, 100 µL of this suspension were diluted in 5 mL of saline and adjusted to an optical density of 0.1 at 530 nm. For S. cerevisiae, fresh exponential YPAD (yeast extract 1%, peptone 2%, adenine 0.004%, […]) cultures were adjusted to an optical density of 0.5 at 600 nm, and then diluted to the equivalent of 1 × 10^4 cells/mL (10^−3 dilution). Stock solutions of Schiff bases were prepared by dissolving them in DMSO at 10 mg/mL. […] The range of concentrations used was empirically selected for each organisms and the Schiff base. Drug sensitivities were assayed by serial dilutions in 96-well plates as previously described. A row with media and cells but without drug was the positive control. The blank was done by preparing a row with media and drugs, but without cells. Plates were fitted with a tight lid before incubation to prevent desiccation. […] The minimum bactericidal concentration (MBC) and fungicidal concentration (MFC) were determined by spreading 100 µL of culture from each well onto a plate (Mueller–Hinton agar for bacteria, Sabouraud dextrose agar for fungi except S. cerevisiae, and YPAD for S. cerevisiae).

[3] = tested on: promastigotes from L. mexicana (M379); test: leishmanicidal activity, MTT colorimetric assay; format: cell-based; conditions: Leishmania mexicana, 48 h exposure, 1% DMSO

Cc1c(N=Cc2ccccc2O)c(=O)n(-c2ccccc2)n1C [Compound 3b, 4-(2-Hydroxybenzylideneamino)-1,5-dimethyl-2-phenyl-1H-pyrazol-3(2H)-one]
antioxidant activity detected in the DPPH assay [1]: no significant antioxidant activity | IC50 ([2]; Saccharomyces cerevisiae, read-out: IC50 sod1): 101 µg/mL (≈ 328 µM) | NIC sod1 ([2]; sod1 mutant BY4741, unit not given): 53.3 ± 0.1 | MIC sod1 ([2]; sod1 mutant BY4741, unit not given, in µg/mL): 164.1 ± 0.1 | IC50 [3]: > 200 µM
